From patent US20220280460A1, “METHODS AND COMPOSITIONS FOR STIMULATING EXOSOME SECRETION” (UNIVERSITY OF PITTSBURGH-OF THE COMMONWEALTH SYSTEM OF …, priority 2019, published 2022) come the findings set out here.

Test [1] deals with UMSCC47 HPV(+) head and neck cancer cells. The test can be described thus: Exosome secretion by UMSCC47 cells. The conditions noted are these: for exosome production by UMSCC47 cells: total exosomal protein normalized to 10^6 cells. In kind it is cell-based. The protocol: All cell lines were grown at 37° C. in the atmosphere of 5% CO2 in air. Cultures were supplemented with fetal bovine serum (FBS) depleted of exosomes by ultracentrifugation at 100,000×g for 3 h. Cells were cultured in 150 cm^2 cell culture flasks using 25 ml of culture medium. Media used for cell cultures are described in Table 1. Seeding protocol was optimized for each cell type as recently described in Ludwig N., et al., (Exp Cell Res. 2019; 378(2):149-57). After seeding, cells were allowed to attach to the flask for 6 h, were then treated with indicated reagents and incubated for 48 or 72 h as indicated.
Exosome isolation by mini-SEC: Processing of supernatants and exosome isolation by mini-SEC was performed as previously described in Ludwig et al. Briefly, cell culture supernatants were centrifuged at room temperature (RT) for 10 min at 2000×g, were transferred to new tubes for centrifugation at 10,000×g at 4° C. for 30 min and filtrated using a 0.22 μm bacterial filter. Afterwards, aliquots of supernatants were concentrated by using Vivacell 100 concentrators at 2000×g. 1 mL of concentrated supernatant was loaded on a 10 cm-long Sepharose 2-B column and individual 1 mL fractions were collected. Fraction #4 containing non-aggregated exosomes was used in subsequent assays. The established isolation technique fulfils the criteria of the MISEV2018 guidelines and therefore the term ‘exosomes’ is used.
Protein concentration: Protein concentrations were determined by using a BCA protein assay (Pierce Biotechnology, Rockford, Ill., USA) according to the manufacturer's instructions.
Tunable resistive pulse sensing (TRPS): Size distribution and concentrations of the particles in isolated exosome fractions were analyzed using tunable-resistive pulse sensing (TRPS) by qNano (Izon) as described in Ludwig N, et al., Mol Cancer Res. 2018; 16(11):1798-808.

The test system of test [2] is Preglomerular vascular smooth muscle cells (PGVSMCs). The test can be described thus: Exosome production by PGVSMCs from CNPase +/+ and −/− rats. In kind it is cell-based, rat. Conditions: 8-Br-2′,3′-cAMP 0.3 μM; IAA/DNP 5 μM. The source says:
Isolation of rat CNPASE +/+ and −/− PGVSMCs: 2′,3′-Cyclic nucleotide 3′-phosphodiesterase (CNPase) knockout rats used in this example were generated by the MCW Gene Editing Rat Resource Program. This strain was produced by injecting a CRISPR targeting the sequence […] into rat embryos. The resulting mutation was a 7 base pair deletion in exon 2. Animals were genotyped by PCR. Preglomerular vascular smooth muscle cells (PGVSMCs) were isolated from kidneys of wild type (CNPase +/+) and knockout (CNPase −/−) rats using a previously described method. Cells were cultured at 37° C. in the atmosphere of 5% CO2 in air using DMEM supplemented with exosome-depleted FBS. Exosome isolation was performed as described above.

As for `Nc1ncnc2c1nc(Br)n2C1OC(CO)C2OP(=O)(O)OC21` (stereo not drawn) [8-Br-2′,3′-cAMP], the “exosome production by UMSCC47 cells” value in test [1] is given as “concentration-dependent increase in exosome secretion”. The “stimulation of exosome production, CNPase −/− versus CNPase +/+ PGVSMCs” value in test [2] was “greater in CNPase −/− compared with CNPase +/+ cells”.
For the molecule `CCCn1c(=O)c2[nH]c(-c3ccc(OCC(=O)Nc4ccc(C#N)cc4)cc3)nc2n(CCC)c1=O` [MRS 1754], the “effect on stimulation of exosome production by IAA/DNP” value in test [1] (UMSCC47, in combination with IAA/DNP) is “significantly decreased”.
On to `Nc1ncnc2c1ncn2[C@@H]1O[C@H](CO)[C@@H](O)[C@H]1OP(=O)(O)O` [2′-AMP], for which the “exosome production by UMSCC47 cells” value in test [1] was “did not affect exosome secretion”.
Same read-out and setting: for `Nc1ncnc2c1ncn2[C@@H]1O[C@H](CO)[C@@H](OP(=O)(O)O)[C@H]1O` [3′-AMP] the value was “significantly stimulated exosome release”.
In the case of `Nc1ncnc2c1ncn2[C@@H]1O[C@H](CO)[C@H]2OP(=O)(O)O[C@H]21` [2′,3′-cAMP], in test [1], the “exosome production by UMSCC47 cells” value is “stimulated exosome production, but only at high concentrations”.
